These results are taken from ChEMBL document CHEMBL1141309, “Isoechinulin-type alkaloids, variecolorins A-L, from halotolerant Aspergillus variecolor” (J Nat Prod, 2007).

The test system of one experiment is P388. Nature of the experiment: Cytotoxicity against mouse P388 cells after 72 hrs by MTT assay. In kind it is functional, cell-based. The settings on record: P388, 72 h.
Experiment [1] is described as follows: DPPH radical scavenging activity. Type of experiment: functional.
Experiment [2] can be described thus: Cytotoxicity against human […] cells after 24 hrs by SRB assay. Type of experiment: functional, cell-based. Background: Sulforhodamine B stains cellular protein and so reports cell mass.
Another experiment deals with Bel-7402. Nature of the experiment: Cytotoxicity against human BEL-7402 cells after 24 hrs by SRB assay. Type of experiment: functional, cell-based. As to conditions: Bel-7402, 24 h.
Another experiment has as its system HL-60. Nature of the experiment: Cytotoxicity against human HL60 cells after 72 hrs by MTT assay. In kind it is functional, cell-based. As to conditions: HL-60, 72 h. (Tetrazolium dyes change colour on reduction, which living cells bring about.)

A word on the IC50: it is the concentration that gives 50% inhibition. As for `C=CC(C)(C)c1[nH]c2ccc(C[C@H]3OC(C)(C)OC3(C)C)cc2c1/C=C1\NC(=O)[C@H](C)NC1=O` [VARIECOLORIN D], the IC50 in the experiment on P388 is > 50 µM; in experiment [1] it was 88 µM; in experiment [2], > 50 µM; with Bel-7402 it was > 50 µM; with HL-60 it was > 50 µM.

`C=CC(C)(C)c1[nH]c2ccc(C[C@@H](O)C(C)(C)Cl)cc2c1/C=C1\NC(=O)[C@H](C)NC1=O` [VARIECOLORIN A]: the IC50 in the experiment on P388 is > 50 µM; in experiment [1] it was 79 µM; in experiment [2], > 50 µM; in the experiment on Bel-7402, > 50 µM; in the experiment on HL-60, > 50 µM.

Turning to `C=CC(C)(C)c1[nH]c2ccc(CC=C(C)C)cc2c1/C=C1\NC(=O)[C@H](C)NC1=O` [ISOECHINULIN A], in experiment [1], the half-inhibitory concentration (IC50) is 98 µM.

On to `C=CC(C)(C)c1[nH]c2ccc(CC=C(C)C)cc2c1C[C@@H]1NC(=O)[C@H](C)NC1=O` [TARDIOXOPIPERAZINE A], for which the IC50 in experiment [1] amounted to 912 µM.

`C=CC(C)(C)c1[nH]c2ccc(CC=C(C)C)c(CC=C(C)C)c2c1C[C@@H]1NC(=O)[C@H](C)NC1=O` [VARIECOLORIN L]: the IC50 in the experiment with P388 was > 50 µM; in experiment [1], 623 µM; in experiment [2], > 50 µM; in the experiment with Bel-7402, > 50 µM; in the experiment on HL-60 it was > 50 µM.

`C=CC(C)(C)c1[nH]c2ccccc2c1C[C@@H]1NC(=O)[C@H](C)NC1=O` [PREECHINULIN] showed an IC50 in experiment [1] of 1000 µM.

On to `CC(=O)O[C@H]1C(=O)[C@@]2(C)[C@H]([C@H](OC(=O)c3ccccc3)[C@]3(O)C[C@H](OC(=O)[C@H](O)[C@@H](NC(=O)c4ccccc4)c4ccccc4)C(C)=C1C3(C)C)[C@]1(OC(C)=O)CO[C@@H]1C[C@@H]2O` [PACLITAXEL], for which the IC50 (in the experiment with P388; in experiment [2]; with Bel-7402; in the experiment on HL-60) was 0.93 µM in each case.

In turn, `O=C1O[C@H]([C@@H](O)CO)C(O)=C1O` [ASCORBIC ACID] yielded an IC50 in experiment [1] of 22 µM. That is a double-digit micromolar value.

On to `C=CC(C)(C)c1[nH]c2c(CC=C(C)C)cccc2c1/C=C1\NC(=O)[C@H](C)NC1=O` [VARIECOLORIN G], for which the IC50 in the experiment on P388 was > 50 µM; in experiment [1] it was 86 µM; in experiment [2] it was > 50 µM; in the experiment on Bel-7402, > 50 µM; in the experiment on HL-60, > 50 µM.

`C=CC(C)(C)c1[nH]c2ccc(CC(=O)C(C)C)cc2c1/C=C1\NC(=O)[C@H](C)NC1=O` [VARIECOLORIN E]: the IC50 was > 50 µM in the experiment with P388; 79 µM in experiment [1]; > 50 µM in experiment [2]; > 50 µM in the experiment with Bel-7402; > 50 µM with HL-60.

The compound `C=CC(C)(C)c1[nH]c2ccccc2c1/C=c1\[nH]c(=O)c(=C)[nH]c1=O` [NEOECHINULIN B] returned a half-inhibitory concentration (IC50) in experiment [1] of 65 µM.

`C=CC(C)(C)c1[nH]c2ccccc2c1/C=C1\NC(=O)C(C)(OC)NC1=O` (stereo unspecified) [VARIECOLORIN H]: the half-inhibitory concentration (IC50) in the experiment with P388 was > 50 µM; in experiment [1] it was 99 µM; in experiment [2], > 50 µM; with Bel-7402 it was > 50 µM; in the experiment on HL-60 it was > 50 µM.

As for `C=CC(C)(C)c1[nH]c2ccc(CC=C(C)C)cc2c1/C=C1\NC(=O)C(=O)NC1=O` [VARIECOLORIN J], the concentration for half-maximal inhibition (IC50) with P388 is > 50 µM; in experiment [1], 102 µM; in experiment [2], > 50 µM; in the experiment with Bel-7402, > 50 µM; in the experiment with HL-60 it was > 50 µM.

On to `C=CC(C)(C)c1[nH]c2c(C[C@@H](O)C(C)(C)Cl)cccc2c1/C=C1\NC(=O)[C@H](C)NC1=O` [VARIECOLORIN F], for which the IC50 in the experiment with P388 is > 50 µM; in experiment [1] it was 77 µM; in experiment [2], > 50 µM; in the experiment on Bel-7402 it was > 50 µM; in the experiment on HL-60, > 50 µM.

Regarding `C=CC(C)(C)c1[nH]c2cc3c(cc2c1/C=C1\NC(=O)[C@H](C)NC1=O)C[C@H](C(C)(C)O)OC3(C)C` [VARIECOLORIN K], the IC50 in the experiment with P388 was > 50 µM; in experiment [1] it was 89 µM; in experiment [2], > 50 µM; with Bel-7402, > 50 µM; in the experiment on HL-60 it was > 50 µM.

With `C=CC(C)(C)c1[nH]c2ccc(CC=C(C)C)cc2c1/C=C1\NC(=O)C(C)(OC)NC1=O` (stereo unspecified) [VARIECOLORIN I], the IC50 in the experiment on P388 is > 50 µM; in experiment [1], 79 µM; in experiment [2] it was > 50 µM; with Bel-7402, > 50 µM; with HL-60 it was > 50 µM.

`C=CC(C)(C)c1[nH]c2c(CC=C(C)C)cc(CC=C(C)C)cc2c1C[C@@H]1NC(=O)[C@H](C)NC1=O` [ECHINULIN]: in experiment [1], it took 569 µM to reach half-maximal inhibition (IC50).

Regarding `C=CC(C)(C)c1[nH]c2ccc(C[C@@H](O)C(=C)C)cc2c1/C=C1\NC(=O)[C@H](C)NC1=O` [VARIECOLORIN C], the IC50 is > 50 µM in the experiment with P388; 75 µM in experiment [1]; > 50 µM in experiment [2]; > 50 µM in the experiment on Bel-7402; > 50 µM with HL-60.

Compound `C=CC(C)(C)c1[nH]c2c(CC=C(C)C)cccc2c1C[C@@H]1NC(=O)[C@H](C)NC1=O` [TARDIOXOPIPERAZINE B] gave an IC50 in experiment [1] of 899 µM.

For `C=CC(C)(C)c1[nH]c2ccc(C[C@@H](Cl)C(C)(C)O)cc2c1/C=C1\NC(=O)[C@H](C)NC1=O` [VARIECOLORIN B], the half-maximal inhibitory concentration (IC50) in the experiment with P388 was > 50 µM; in experiment [1], 97 µM; in experiment [2], > 50 µM; in the experiment on Bel-7402, > 50 µM; in the experiment on HL-60, > 50 µM.
